Tests used:
Assay type in all cases: cell-based
[1] = test system: U2OS cells; assay: Change in motion speed by motor protein inhibitor (phase contrast imaging, average motion speed); conditions: imaging time 60 minutes
Procedure: Images (moving image) of U2OS cells cultured at different medicine concentrations were captured with a phase contrast microscope. […] For the AMP-PNP, three types of cells respectively having medicine concentrations of 67, 200, and 670 micro M and a comparative cell to which nothing is administered were prepared. For the ATA, three types of cells respectively having medicine concentrations of 10, 30, and 100 micro M and a comparative cell to which nothing is administered were prepared. The magnification power of the microscope was 20×, the imaging interval was 5 frames per second, and the imaging time was 60 minutes. After motion vectors were calculated at intervals of approximately 1 micrometer, an average of the motion amount per unit time (motion speed) was calculated, to create a graph.
FIG. 27 is a graph of a motion speed for the cells to which AMP-PNP is administered at different medicine concentrations. FIG. 28 is a graph of a motion speed for the cells to which ATA is administered at different medicine concentrations.

[2] = test system: U2OS cells; assay: Change in motion speed by metabolic inhibition with mitochondrial uncoupler (phase contrast imaging, relative motion area); conditions: U2OS cells, 0.5, 5 and 50 micro M, imaging time 20 minutes, versus comparative cell (FIG. 26)
Procedure: Images (moving image) of U2OS cells cultured at different medicine concentrations were captured with a phase contrast microscope. A medicine was CCCP, which is a mitochondrial uncoupler used as a metabolic inhibitor. Three types of cells respectively having medicine concentrations of 0.5, 5, and 50 micro M and a comparative cell to which nothing is administered were prepared. The magnification power of the microscope was 20×, the imaging interval was 5 frames per second, and the imaging time was 20 minutes. After motion vectors were calculated at intervals of approximately 1 micrometer, a relative motion area was calculated to create a graph.
FIG. 26 is a graph of a relative motion area for the cells cultured at different medicine concentrations.

[3] = test system: U2OS cells; assay: Change in motion speed by microtubule disruption (phase contrast imaging, motion vector analysis); conditions: 2 micro M, imaging time 20 minutes; for motion area in color map of motion speed: versus comparative cell (FIGS. 20, 22, 24); for relative motion area (proportion of the motion area to the cell area): versus comparative cell to which nothing is administered (FIG. 25)
Procedure: Images (moving image) of U2OS cells cultured on different conditions were captured with a phase contrast microscope. Three types of cells, i.e., a cell to which Paclitaxel of 2 micro M is administered, a cell to which Nocodazole of 2 micro M is administered, and a comparative cell to which nothing is administered, were prepared. The Paclitaxel stabilizes a microtubule. The Nocodazole destabilizes a microtubule. The magnification power of the microscope was 20×, the imaging interval was 5 frames per second, and the imaging time was 20 minutes. After motion vectors were calculated at intervals of approximately 1 micrometer, a spatiotemporal average of the motion amount per unit time (motion speed) of each coordinate was calculated, to create a color map. Further, on the basis of the proportion of the cell within the captured image, a cell area and a motion area indicating a motion speed larger than a predetermined motion speed were calculated, and a relative motion area indicating a proportion of the motion area to the cell area was specified, to create a graph.
FIG. 19 is a phase-contrast image of a comparative cell to which nothing is administered, and FIG. 20 is a color map of the comparative cell. FIG. 21 is a phase-contrast image of a cell to which Paclitaxel is administered, and FIG. 22 is a color map of the cell. FIG. 23 is a phase-contrast image of a cell to which Nocodazole is administered, and FIG. 24 is a color map of the cell. FIG. 25 is a graph of a relative motion area for the cells cultured on those three conditions.

Row | Compound | motion area in color map of motion speed [3] | relative motion area (proportion of the motion area to the cell area) [3] | other results
1 | Nc1ncnc2c1ncn2[C@@H]1O[C@H](COP(=O)(O)OP(=O)(O)NP(=O)(O)O)[C@@H](O)[C@H]1O [AMP-PNP] | – | – | motion speed (average of the motion amount per unit time) ([1]; U2OS cells, 67, 200 and 670 micro M, versus comparative cell (FIG. 27)): the value of the motion speed decreases in accordance with an increase of the medicine concentration
2 | O=C(O)C1=CC(=C(c2ccc(O)c(C(=O)O)c2)c2ccc(O)c(C(=O)O)c2)C=CC1=O [ATA] | – | – | motion speed (average of the motion amount per unit time) ([1]; U2OS cells, 10, 30 and 100 micro M, versus comparative cell (FIG. 28)): the value of the motion speed decreases in accordance with an increase of the medicine concentration
3 | N#CC(C#N)=NNc1cccc(Cl)c1 [CCCP] | – | – | relative motion area [2]: the value of the relative motion area decreases in accordance with an increase of the concentration of CCCP
4 | COC(=O)Nc1nc2ccc(C(=O)c3cccs3)cc2[nH]1 [Nocodazole] | the motion area obviously shrinks in the color map | the value of the relative motion area decreases | –
5 | CC(=O)O[C@H]1C(=O)[C@@]2(C)[C@H]([C@H](OC(=O)c3ccccc3)[C@]3(O)C[C@H](OC(=O)[C@H](O)[C@@H](NC(=O)c4ccccc4)c4ccccc4)C(C)=C1C3(C)C)[C@]1(OC(C)=O)CO[C@@H]1C[C@@H]2O [Paclitaxel] | do not have difference in color map | do not have difference in color map and in value of the relative motion area | –
